According to patent US20100190788A1, “Amide derivatives as kinase inhitors” (priority 2005, published 2010):
Where a name gives a salt, the structure may show the parent alone.

Target: T1, human ROCKα/ROCKII mix (Homo sapiens, UniProt O75116)
T1 construct: purchased Upstate Biotechnology 14-451
Experiment: ROCK inhibition, fluorescence polarization (FP) assay with ROCK IMAP Kit
Assay type: biochemical

[1] = Table 3, compounds of Formula III20

T1 sequence (O75116 whole entry): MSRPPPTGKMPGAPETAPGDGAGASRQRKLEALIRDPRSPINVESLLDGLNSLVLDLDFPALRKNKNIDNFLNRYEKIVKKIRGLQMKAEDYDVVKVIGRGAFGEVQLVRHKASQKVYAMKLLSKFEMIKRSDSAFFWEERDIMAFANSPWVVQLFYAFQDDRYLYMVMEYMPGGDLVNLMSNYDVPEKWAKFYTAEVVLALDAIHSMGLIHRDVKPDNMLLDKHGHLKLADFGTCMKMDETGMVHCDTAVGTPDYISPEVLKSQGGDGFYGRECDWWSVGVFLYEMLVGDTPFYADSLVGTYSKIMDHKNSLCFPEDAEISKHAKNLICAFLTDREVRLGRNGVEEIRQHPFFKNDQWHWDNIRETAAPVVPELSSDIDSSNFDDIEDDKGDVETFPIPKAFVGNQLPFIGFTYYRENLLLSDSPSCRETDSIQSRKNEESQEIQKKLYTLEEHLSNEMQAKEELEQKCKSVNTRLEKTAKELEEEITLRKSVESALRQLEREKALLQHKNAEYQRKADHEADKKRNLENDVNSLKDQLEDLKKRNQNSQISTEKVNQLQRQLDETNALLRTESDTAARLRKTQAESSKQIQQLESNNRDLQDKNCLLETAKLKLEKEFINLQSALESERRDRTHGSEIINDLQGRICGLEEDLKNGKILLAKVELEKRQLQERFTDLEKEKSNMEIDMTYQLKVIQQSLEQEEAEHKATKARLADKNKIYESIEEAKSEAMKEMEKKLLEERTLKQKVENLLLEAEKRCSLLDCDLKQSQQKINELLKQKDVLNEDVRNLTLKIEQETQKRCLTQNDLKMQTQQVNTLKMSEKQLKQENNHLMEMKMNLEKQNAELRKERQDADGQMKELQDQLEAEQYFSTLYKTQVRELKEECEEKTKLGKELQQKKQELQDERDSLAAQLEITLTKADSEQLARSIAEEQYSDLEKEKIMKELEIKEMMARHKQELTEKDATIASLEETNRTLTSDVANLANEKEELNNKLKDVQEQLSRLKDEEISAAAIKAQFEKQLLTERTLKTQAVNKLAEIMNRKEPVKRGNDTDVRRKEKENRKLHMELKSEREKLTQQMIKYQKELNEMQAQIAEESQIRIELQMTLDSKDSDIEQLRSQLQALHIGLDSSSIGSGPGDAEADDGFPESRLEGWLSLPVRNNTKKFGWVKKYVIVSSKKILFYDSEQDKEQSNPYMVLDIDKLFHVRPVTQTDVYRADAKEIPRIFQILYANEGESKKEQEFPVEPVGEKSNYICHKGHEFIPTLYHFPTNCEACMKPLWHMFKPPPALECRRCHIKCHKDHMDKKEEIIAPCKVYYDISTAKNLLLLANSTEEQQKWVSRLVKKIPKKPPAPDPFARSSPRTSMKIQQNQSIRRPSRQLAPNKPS

Row | IC50 [1] | IC50 (Table 4, compounds 132 to 156) | Compound
1 | < 0.5 µM |  | NC(CC(=O)N1CCC(c2ccccc2)CC1)c1ccc(C(=O)Nc2ccncc2)cc1 (stereo not shown) [Compound 117, 4-[1-amino-3-(4-phenyl-piperidin-1-yl)-3-oxo-propyl]-N-pyridin-4-yl-benzamide]
2 | < 0.5 µM |  | NC(CC(=O)N1CC=C(c2ccc(F)cc2)CC1)c1ccc(C(=O)Nc2ccncc2)cc1 (stereo not shown) [Compound 118, 4-{1-amino-3[4-(4-fluoro-phenyl)-3,6-dihydro-2H-pyridin-1-yl]-3-oxo-propyl}-N-pyridin-4-yl-benzamide]
3 | < 0.5 µM |  | NC(CC(=O)N1CCC(Cc2ccccc2)CC1)c1ccc(C(=O)Nc2ccncc2)cc1 (stereo not shown) [Compound 119, 4-[1-amino-3-(4-benzyl-piperidin-1-yl)-3-oxo-propyl]-N-pyridin-4-yl-benzamide]
4 | < 0.5 µM |  | NC(CC(=O)N1CCC(c2nc3ccccc3o2)CC1)c1ccc(C(=O)Nc2ccncc2)cc1 (stereo not shown) [Compound 120, 4-[1-amino-3-(4-benzooxazol-2-yl-piperidin-1-yl)-3-oxo-propyl]-N-pyridin-4-yl-benzamide]
5 | 0.5 to 5 µM |  | COc1ccc(CN2CCN(C(=O)CC(N)c3ccc(C(=O)Nc4ccncc4)cc3)CC2)cc1 (stereo not shown) [Compound 121, 4-{1-Amino-3-[4-(4-methoxy-benzyl)-piperazin-1-yl]-3-oxo-propyl}-N-pyridin-4-yl-benzamide]
6 | < 0.5 µM |  | NC(CC(=O)N1CCN(Cc2ccccc2F)CC1)c1ccc(C(=O)Nc2ccncc2)cc1 (stereo not shown) [Compound 122, 4-{1-amino-3-[4-(2-fluoro-benzyl)-piperazin-1-yl]-3-oxo-propyl}-N-pyridin-4-yl-benzamide]
7 | < 0.5 µM |  | NC(CC(=O)N1CCN(Cc2ccc(F)cc2)CC1)c1ccc(C(=O)Nc2ccncc2)cc1 (stereo not shown) [Compound 123, 4-{1-amino-3-[4-(4-fluoro-benzyl)-piperazin-1-yl]-3-oxo-propyl}-N-pyridin-4-yl-benzamide]
8 | < 0.5 µM |  | NC(CC(=O)N1CCN(C(=O)c2ccco2)CC1)c1ccc(C(=O)Nc2ccncc2)cc1 (stereo not shown) [Compound 124, 4-{1-amino-3-[4-(furan-2-carbonyl)-piperazin-1-yl]-3-oxo-propyl}-N-pyridin-4-yl-benzamide]
9 | < 0.5 µM |  | NC(CC(=O)N1CCC(c2c[nH]c3ccccc23)CC1)c1ccc(C(=O)Nc2ccncc2)cc1 (stereo not shown) [Compound 125, 4-{1-amino-3-[4-(1H-indol-3-yl)-piperidin-1-yl]-3-oxo-propyl}-N-pyridin-4-yl-benzamide]
10 | 0.5 to 5 µM |  | COC(=O)c1ccc2c(c1)CCN(C(=O)CC(N)c1ccc(C(=O)Nc3ccncc3)cc1)C2 (stereo not shown) [Compound 126, 2-{3-amino-3-[4-(pyridin-4-ylcarbamoyl)-phenyl]-propionyl}-1,2,3,4-tetrahydro-isoquinoline-6-carboxylic acid methyl ester]
11 | < 0.5 µM |  | COC(=O)c1ccc(C2CCCCN2C(=O)CC(N)c2ccc(C(=O)Nc3ccncc3)cc2)cc1 (stereo not shown) [Compound 127, 4(1-{3-amino-3-[4-(pyridin-4-ylcarbamoyl)-phenyl]-propionyl}-piperidin-2-yl)-benzoic acid methyl ester]
12 | < 0.5 µM |  | NC(CC(=O)N1CCc2c([nH]c3ccccc23)C1)c1ccc(C(=O)Nc2ccncc2)cc1 (stereo not drawn) [Compound 128, 4-[1-amino-3-oxo-(1,3,4,9-tetrahydro-β-carbolin-2-yl)-propyl]-N-pyridin-4-yl-benzamide]
13 | 0.5 to 5 µM |  | NC(CC(=O)N1CCc2c([nH]c3ccccc23)C1c1cccc(Cl)c1)c1ccc(C(=O)Nc2ccncc2)cc1 (stereo not drawn) [Compound 129, 4-{1-amino-3-[1-(3-chloro-phenyl)-1,3,4,9-tetrahydro-β-carbolin-2-yl]-3-oxo-propyl}-N-pyridin-4-yl-benzamide]
14 | 0.5 to 5 µM |  | COc1ccc(C2c3[nH]c4ccccc4c3CCN2C(=O)CC(N)c2ccc(C(=O)Nc3ccncc3)cc2)cc1Br (stereo not drawn) [Compound 130, 4-{1-amino-3-[1-(3-bromo-4-methoxy-phenyl)-1,3,4,9-tetrahydro-β-carbolin-2-yl]-3-oxo-propyl}-N-pyridin-4-yl-benzamide]
15 | < 0.5 µM |  | NC(CC(=O)N1CCc2ccccc2C1)c1ccc(C(=O)Nc2ccncc2)cc1 (stereo not shown) [Compound 131, 4-[1-amino-3-(3,4-dihydro-1H-isoquinolin-2-yl)-3-oxo-propyl]-N-pyridin-4-yl-benzamide]
16 |  | 0.5 to 5 µM | COc1ccc(S(=O)(=O)N2CCCC2C(N)c2ccc(C(=O)Nc3ccncc3)cc2)cc1 (stereo not shown) [Compound 132, 4-{Amino-[1-(4-methoxy-benzenesulfonyl)-pyrrolidin-2-yl]-methyl}-N-pyridin-4-yl-benzamide dihydrochloric acid salt]
17 |  | 0.5 to 5 µM | NC(c1ccc(C(=O)Nc2ccncc2)cc1)C1CCCN1S(=O)(=O)c1ccccc1Cl (stereo not shown) [Compound 133, 4-{Amino-[1-(2-chloro-benzenesulfonyl)-pyrrolidin-2-yl]-methyl}-N-pyridin-4-yl-benzamide dihydrochloric acid salt]

Row | IC50 [1] | IC50 (Table 4, compounds 132 to 156) | Compound
18 |  | 0.5 to 5 µM | NC(c1ccc(C(=O)Nc2ccncc2)cc1)C1CCCN1S(=O)(=O)c1cccc(Cl)c1 (stereo not shown) [Compound 134, 4-{Amino-[1-(3-chloro-benzenesulfonyl)-pyrrolidin-2-yl]-methyl}-N-pyridin-4-yl-benzamide dihydrochloric acid salt]
19 |  | 0.5 to 5 µM | NC(c1ccc(C(=O)Nc2ccncc2)cc1)C1CCCN1S(=O)(=O)c1ccc(Cl)cc1 (stereo not shown) [Compound 135, 4-{Amino-[1-(4-chloro-benzenesulfonyl)-pyrrolidin-2-yl]-methyl}-N-pyridin-4-yl-benzamide dihydrochloric acid salt]
20 |  | 0.5 to 5 µM | NC(c1ccc(C(=O)Nc2ccncc2)cc1)C1CCCN1S(=O)(=O)c1ccccc1F (stereo not shown) [Compound 136, 4-{Amino-[1-(2-fluoro-benzenesulfonyl)-pyrrolidin-2-yl]-methyl}-N-pyridin-4-yl-benzamide dihydrochloric acid salt]
21 |  | 0.5 to 5 µM | NC(c1ccc(C(=O)Nc2ccncc2)cc1)C1CCCN1S(=O)(=O)c1cccc(F)c1 (stereo not shown) [Compound 137, 4-{Amino-[1-(3-fluoro-benzenesulfonyl)-pyrrolidin-2-yl]-methyl}-N-pyridin-4-yl-benzamide dihydrochloric acid salt]
22 |  | 0.5 to 5 µM | NC(c1ccc(C(=O)Nc2ccncc2)cc1)C1CCCN1S(=O)(=O)c1ccc(F)cc1 (stereo not shown) [Compound 138, 4-{Amino-[1-(4-fluoro-benzenesulfonyl)-pyrrolidin-2-yl]-methyl}-N-pyridin-4-yl-benzamide dihydrochloric acid salt]
23 |  | 0.5 to 5 µM | CN(CC(N)c1ccc(C(=O)Nc2ccncc2)cc1)S(=O)(=O)c1ccccc1 (stereo not shown) [Compound 139, 4-[1-Amino-2-(benzenesulfonyl-methyl-amino)-ethyl]-N-pyridin-4-yl-benzamide dihydrochloric acid salt]
24 |  | 0.5 to 5 µM | CN(CC(N)c1ccc(C(=O)Nc2ccncc2)cc1)S(=O)(=O)c1ccc(F)cc1 (stereo not shown) [Compound 140, 4-{1-Amino-2-[(4-fluoro-benzenesulfonyl)-methyl-amino]-ethyl}-N-pyridin-4-yl-benzamide dihydrochloric acid salt]
25 |  | 0.5 to 5 µM | CN(CC(N)c1ccc(C(=O)Nc2ccncc2)cc1)S(=O)(=O)c1cccc(F)c1 (stereo not shown) [Compound 141, 4-{1-Amino-2-[(3-fluoro-benzenesulfonyl)-methyl-amino]-ethyl}-N-pyridin-4-yl-benzamide dihydrochloric acid salt]
26 |  | 0.5 to 5 µM | CN(CC(N)c1ccc(C(=O)Nc2ccncc2)cc1)S(=O)(=O)c1ccccc1F (stereo not shown) [Compound 142, 4-{1-Amino-2-[(2-fluoro-benzenesulfonyl)-methyl-amino]-ethyl}-N-pyridin-4-yl-benzamide dihydrochloric acid salt]
27 |  | 0.5 to 5 µM | CN(CC(N)c1ccc(C(=O)Nc2ccncc2)cc1)S(=O)(=O)c1ccccc1Cl (stereo not shown) [Compound 143, 4-{1-Amino-2-[(2-chloro-benzenesulfonyl)-methyl-amino]-ethyl}-N-pyridin-4-yl-benzamide dihydrochloric acid salt]
28 |  | 0.5 to 5 µM | CN(CC(N)c1ccc(C(=O)Nc2ccncc2)cc1)S(=O)(=O)c1cccc(Cl)c1 (stereo not shown) [Compound 144, 4-{1-Amino-2-[(3-chloro-benzenesulfonyl)-methyl-amino]-ethyl}-N-pyridin-4-yl-benzamide dihydrochloric acid salt]
29 |  | 0.5 to 5 µM | CN(CC(N)c1ccc(C(=O)Nc2ccncc2)cc1)S(=O)(=O)c1ccc(Cl)cc1 (stereo not shown) [Compound 145, 4-{1-Amino-2-[(4-chloro-benzenesulfonyl)-methyl-amino]-ethyl}-N-pyridin-4-yl-benzamide dihydrochloric acid salt]
30 |  | < 0.5 µM | COc1ccc(S(=O)(=O)N(C)CC(N)c2ccc(C(=O)Nc3ccncc3)cc2)cc1 (stereo not shown) [Compound 146, 4-{1-Amino-2-[(4-methoxy-benzenesulfonyl)-methyl-amino]-ethyl}-N-pyridin-4-yl-benzamide dihydrochloric acid salt]
31 |  | < 0.5 µM | N[C@H](CC(=O)N1CCC[C@@H]1c1cccc(F)c1)c1ccc(C(=O)Nc2ccncc2)cc1 [Compound 149, 4-{(R)-1-Amino-3-[(R)-2-(3-fluoro-phenyl)-pyrrolidin-1-yl]-3-oxo-propyl}-N-pyridin-4-yl-benzamide dihydrochloric acid salt]
32 |  | < 0.5 µM | N[C@H](CC(=O)N1CCC[C@H]1c1cccc(F)c1)c1ccc(C(=O)Nc2ccncc2)cc1 [Compound 150, 4-{(R)-1-Amino-3-[(S)-2-(3-fluoro-phenyl)-pyrrolidin-1-yl]-3-oxo-propyl}-N-pyridin-4-yl-benzamide dihydrochloric acid salt]
33 |  | < 0.5 µM | N[C@@H](CC(=O)N1CCC[C@@H]1c1cccc(F)c1)c1ccc(C(=O)Nc2ccncc2)cc1 [Compound 151, 4-{(S)-1-Amino-3-[(R)-2-(3-fluoro-phenyl)-pyrrolidin-1-yl]-3-oxo-propyl}-N-pyridin-4-yl-benzamide dihydrochloric acid salt]
34 |  | < 0.5 µM | N[C@@H](CC(=O)N1CCC[C@H]1c1cccc(F)c1)c1ccc(C(=O)Nc2ccncc2)cc1 [Compound 152, 4-{(S)-1-Amino-3-[(S)-2-(3-fluoro-phenyl)-pyrrolidin-1-yl]-3-oxo-propyl}-N-pyridin-4-yl-benzamide dihydrochloric acid salt]
